Measurements as given in US7261889B2, “Local anesthetic methods and kits” (Novalar Pharmaceuticals, Inc., priority 2000, dated 2007).
“Also recorded” adds a separate entry of the source. Where a name gives a salt, the structure may show the parent alone.

Experiments:
[1] = tested on: local anesthesia from 2% polocaine (mepivacaine hydrochloride) with levonordefrin in healthy, male human subjects; assay: Human subjects study of local anesthesia reversal by LARA versus saline vehicle (bilateral injections); type: in vivo; conditions: three subjects; 0.05 mg/ml phentolamine-mesylate, 1.6 ml (0.08 mg)
Procedure: An injection of the physiological saline vehicle (without phentolamine-mesylate) served as the control. […] This was followed by injection of the phentolamine-mesylate containing local anesthetic reversal agent (LARA) into one side of the oral cavity, and injection of the saline vehicle (control) solution into the opposite side of the oral cavity. The time to reversal of the local anesthetic effect on both sides was then recorded to determine whether there is a difference between the two sides.
The local anesthetic used was 2% polocaine (mepivacaine hydrochloride) with levonordefrin (1:20,000=0.05 mg/ml) (levonordefrin injection, USP) (Astra USA, Inc., Westborough, Mass. 01581). Levonordefrin is a sympathomimetic amine with a pharmacological profile similar to that of epinephrine, but with a lower potency.
Three healthy, male human subjects, age 34-50, volunteered to have local anesthetic injected in the mouth bilaterally under the lip in an easily repeatable location. The exact time of each injection was recorded. The position chosen was above (apical) the prominence of the root of the upper cuspid teeth. This is a common site selected to numb the cuspids, lateral incisors and upper lip. The volume of the local anesthetic injected was 1.7+0.1 ml on each side of the mouth. […]

[2] = tested on: patients pretreated with lignocaine admixed with epinephrine; conditions: 0.5-1.5 mg; '714 patent Example 1, Table 1; cited from earlier work
[3] = tested on: patients; conditions: systemic doses; usually in association with marked hypotensive episodes; cited from earlier work

SMILES	local anesthesia reversal compared to saline side (in words) [1]	side-effects [1]	duration of anesthesia [2]	side effects reported following administration [3]
Cc1ccc(N(CC2=NCCN2)c2cccc(O)c2)cc1 [phentolamine-mesylate, phentolamine mesylate]	highly effective anesthesia reversal	no side-effects of any kind were noted; also recorded: without any side-effects whatsoever	–	–
Cc1ccc(N(CC2=NCCN2)c2cccc(O)c2)cc1 [phentolamine]	–	–	reduction in the duration of anesthesia with increasing amounts	Myocardial infarction, cerebrovascular spasm, and cerebrovascular occlusion have been reported
